Source: the supplement of paper PMC10307832

How the values were obtained:
Assay in all cases: relative viability (nuclei count vs DMSO), 5 days (fraction); higher = more cells survive
[1] = compound: O[C@@H](COc1cccc2ncccc12)CN1CCN([C@@H]2c3ccccc3[C@@H]3[C@H](c4ccccc42)C3(F)F)CC1 [Zosuquidar] + C[C@]1(O)C[C@@H](c2nc(-c3ccc4ccc(-c5ccccc5)nc4c3)c3c(N)nccn32)C1 [Linsitinib] (partner 1 µM)
Method in brief: (§1)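 Each reported value is a median over duplicate plates. It expresses relative viability: treated-well nuclei count divided by vehicle-well nuclei count. Lung cancer cell lines in 1536-well plates were dosed by pin tool a day after seeding, alone with one drug or with a fixed anchor-drug dose plus five library-drug doses (not always all listed) in √10 steps, and nuclei were counted after 5 days.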

[2] = compound: O[C@@H](COc1cccc2ncccc12)CN1CCN([C@@H]2c3ccccc3[C@@H]3[C@H](c4ccccc42)C3(F)F)CC1 [Zosuquidar] + CC1(C)CCC(c2ccc(Cl)cc2)=C(CN2CCN(c3ccc(C(=O)NS(=O)(=O)c4ccc(N[C@H](CCN5CCOCC5)CSc5ccccc5)c(S(=O)(=O)C(F)(F)F)c4)cc3)CC2)C1 [Navitoclax] (partner 0.5 µM)
Method in brief: as §1

[3] = compound: C1=CC(=CC=C1NC(=S)NNC2=C(C=C(C=C2[N+](=O)[O-])C(F)(F)F)[N+](=O)[O-])F [Kobe2602] + CC(=O)c1c(C)c2cnc(Nc3ccc(N4CCNCC4)cn3)nc2n(C2CCCC2)c1=O [Palbociclib] (partner 0.5 µM)
Method in brief: as §1

[4] = compound: C1=CC(=CC=C1NC(=S)NNC2=C(C=C(C=C2[N+](=O)[O-])C(F)(F)F)[N+](=O)[O-])F [Kobe2602] + CS(=O)(=O)N1CCN(Cc2cc3nc(-c4cccc5[nH]ncc45)nc(N4CCOCC4)c3s2)CC1 [Pictilisib] (partner 1 µM)
Method in brief: as §1

Row | Cell Line | relative viability ([1]; first compound 0.01 µM) | relative viability ([1]; first compound 0.03162 µM) | relative viability ([1]; first compound 0.1 µM) | relative viability ([1]; first compound 0.3162 µM) | relative viability ([1]; first compound 1 µM) | relative viability ([2]; first compound 0.01 µM) | relative viability ([2]; first compound 0.03162 µM) | relative viability ([2]; first compound 0.1 µM) | relative viability ([2]; first compound 0.3162 µM) | relative viability ([2]; first compound 1 µM) | relative viability ([3]; first compound 0.2 µM) | relative viability ([3]; first compound 0.6325 µM) | relative viability ([3]; first compound 2 µM) | relative viability ([3]; first compound 6.325 µM) | relative viability ([3]; first compound 20 µM) | relative viability ([4]; first compound 0.2 µM) | relative viability ([4]; first compound 0.6325 µM) | relative viability ([4]; first compound 2 µM) | relative viability ([4]; first compound 6.325 µM) | relative viability ([4]; first compound 20 µM)
1 | NCI-H1437 | 1.06 | 1.01 | 0.936 | 1.08 | 1.05 | 1.08 | 1.1 | 1.06 | 1.15 | 1.15 | 0.308 | 0.306 | 0.299 | 0.337 | 0.257 | 0.412 | 0.501 | 0.471 | 0.424 | 0.363
2 | EKVX | 1.05 | 1.06 | 0.731 | 0.922 | 1.05 | 0.93 | 0.938 | 0.842 | 1.03 | 0.899 | 0.456 | 0.386 | 0.375 | 0.408 | 0.379 | 0.461 | 0.422 | 0.386 | 0.412 | 0.426
3 | NCI-H596 | 1.03 | 1.09 | 1.03 | 1.05 | 1.03 | 1.04 | 1.05 | 0.861 | 0.982 | 0.972 | – | – | – | – | – | 0.222 | 0.432 | 0.395 | 0.403 | 0.422
4 | NCI-H1993 | 0.707 | 0.783 | 0.698 | 0.695 | 0.706 | 0.966 | 0.978 | 0.896 | 1.1 | 0.802 | 0.679 | 0.543 | 0.48 | 0.589 | 0.525 | 0.649 | 0.807 | 0.861 | 0.893 | 0.785
5 | HCC-78 | 0.67 | 0.556 | – | 0.486 | 0.542 | 1.04 | 0.768 | – | 0.839 | 0.736 | 0.522 | 0.446 | 0.479 | 0.535 | 0.52 | 0.246 | 0.255 | – | 0.212 | 0.211
6 | NCI-H2087 | 0.916 | 1.03 | 1.01 | 0.987 | 0.89 | 0.968 | 0.994 | 0.965 | 1.18 | 1.08 | 0.202 | 0.258 | 0.21 | 0.297 | 0.237 | 0.86 | 0.832 | 0.78 | 0.841 | 0.95
7 | H3255 | 1.07 | 0.945 | 0.783 | 1.1 | 0.951 | 0.513 | 0.492 | 0.537 | 0.608 | 0.436 | 0.336 | 0.337 | 0.333 | 0.273 | 0.303 | 0.533 | 0.451 | 0.509 | 0.486 | 0.509
8 | NCI-H2126 | 0.71 | 0.707 | 0.543 | 0.755 | 0.719 | 0.79 | 0.845 | 0.741 | 0.889 | 0.845 | 0.379 | 0.357 | 0.343 | 0.346 | 0.35 | 0.508 | 0.508 | 0.485 | 0.475 | 0.492
9 | LC-2-ad | 0.776 | 0.857 | 0.873 | 0.797 | 0.895 | 0.452 | 0.607 | 0.407 | 0.534 | 0.406 | 0.466 | 0.514 | 0.533 | 0.506 | 0.484 | 0.614 | 0.54 | 0.459 | 0.441 | 0.477
10 | SW 1573 | 0.713 | 0.728 | 0.793 | 0.925 | 0.859 | 0.974 | 0.896 | 1.07 | 1.05 | 1.02 | 0.405 | 0.477 | 0.375 | 0.358 | 0.281 | 0.491 | 0.457 | 0.365 | 0.556 | 0.486
11 | EBC-1 | 0.956 | 0.923 | 0.747 | 1.16 | 0.845 | 0.451 | 0.417 | 0.466 | 0.493 | 0.417 | – | – | – | – | – | 0.365 | 0.556 | 0.402 | 0.378 | 0.437
12 | HCC-15 | 0.949 | 0.794 | 0.913 | 0.901 | 0.901 | 0.723 | 0.702 | 0.683 | 0.665 | 0.667 | 0.698 | 0.72 | 0.662 | 0.547 | 0.618 | 0.816 | 0.848 | 0.738 | 0.78 | 0.707
13 | NCI-H1650 | – | – | – | – | – | 1.12 | 1.11 | 1.05 | 1.23 | 1.21 | 0.36 | 0.35 | 0.365 | 0.366 | 0.261 | 0.554 | 0.806 | 0.635 | 0.658 | 0.597
14 | COR-L 105 | 0.889 | 0.975 | 0.869 | 1.15 | 1.05 | 0.944 | 0.638 | 0.725 | 0.968 | 0.631 | 0.423 | 0.413 | 0.422 | 0.438 | 0.383 | 0.434 | 0.433 | 0.377 | 0.455 | 0.387
15 | NCI-H650 | 0.886 | 0.629 | – | 0.965 | 0.921 | – | – | – | – | – | 0.31 | 0.357 | 0.344 | 0.402 | 0.372 | 0.946 | 0.935 | 0.775 | 0.859 | 0.883
16 | LXF-289 | 0.888 | 1 | 0.94 | 0.981 | 1.03 | 0.934 | 0.957 | 0.911 | 0.952 | 1.02 | 0.585 | 0.597 | 0.59 | 0.556 | 0.62 | 0.82 | 0.814 | 0.693 | 0.862 | 0.799
